In patent publication US20210308171A1, “METHODS FOR COMBINATORIAL SCREENING AND USE OF THERAPEUTIC TARGETS THEREOF” (THE BROAD INSTITUTE, INC., priority 2018, published 2021):

What was measured:
293T cells = experiment: SaCas9 tiling library 6-thioguanine resistance screen; type: cell-based
Description: FIG. 10—Development of SaCas9 on-target rules. (a) Representation of all SaCas9 sgRNAs tested according to group and gene. sgRNAs are grouped based on whether the target gene is assayed by 6-thioguanine resistance, cell viability, or vemurafenib resistance. Control sgRNAs are also indicated. (b) Log 2 fold change of sgRNAs relative to their starting abundance in the plasmid DNA library in cell viability and resistance experiments. That knockout of NUDTS confers 6-thioguanine resistance in 293T cells but not A375 cell is expected based on previous results^16. P-values: Kruskal-Wallis test with Dunn's multiple comparisons test for each gene relative to the set of non-targeting controls. Significance labels: ns, not significant; *P<0.05; **P<0.01; ***P<0.001; ****P<0.0001.
Applicants designed a second tiling library with all sgRNAs with an NNGRR PAM that targeted 9 genes with known phenotypes in viability and drug resistance assays, a total of 5,327 sgRNAs, including controls (FIG. 10a). Applicants performed viability screens in three cell lines (A375, 293T, MOLM13), and screened relevant cell lines for 6-thioguanine (A375, 293T) and vemurafenib resistance (A375).

[1] = test system: Meljuso, OVCAR8, and A549 cells; experiment: Cell Titer Glo viability of cells transduced with single SaCas9 sgRNAs (MCL1, BCL2L1, BCL2L2 or controls) and treated with small molecule inhibitors; type: cell-based; conditions: 3 days; for synergy of small molecule with sgRNAs targeting MCL1 (cell viability): both sgRNAs targeting MCL1, dosed from 1 nM to 1 μM
Description: (b) Validation of genetic interactions with individual gene knockout combined with small molecules. Seven days after transduction with lentivirus expressing individual sgRNAs, cells were incubated with small molecules for three days before assaying viability by Cell Titer Glo. Points represent the average and whiskers represent the maximum and minimum of two replicate wells. […] Cells were incubated with small molecules for three days before assaying viability by Cell Titer Glo (top).
(a) As in FIG. 5b, cells were infected with individual sgRNAs and 7 days post-infection treated with small molecules over a range of doses. Cell viability was determined by Cell Titer Glo after 3 days.
Meljuso, OVCAR8, and A549 cells were transduced with single SaCas9 sgRNAs targeting MCL1, BCL2L1, or BCL2L2, or controls. […] Cells were dosed from 1 nM to 1 μM, and cell viability assessed (FIG. 5b, FIG. 15a).
Meljuso cells were transduced in 12-well plates, as described above, with lentivirus containing a single sgRNA targeting one of the anti-apoptotic genes (BCL2L1, BCL2L2, MCL1) or a control sgRNA either targeting CD81 or containing a run of 6 thymidines. Two days after transduction, cells were selected using puromycin at 1 μg/mL for five days. After puromycin selection, 3,000 cells were seeded into 96-well plates. Across each row of the 96-well plate, a different small molecule was added at 11 log 2-dilutions ranging from 1 μM to approximately 1 nM in duplicate for each of the cell lines. […] After 3 days in the presence of the small molecule, viability of the cell population was assayed by CellTiterGlo (Promega) according to the manufacturer's instructions.

Meljuso cells = experiment: Apoptosis Big Papi library screen with inhibitors of anti-apoptotic proteins; type: cell-based, human; conditions: 250 nM, on/off dosing
Description: (e) In Meljuso cells with single gene knockouts, comparison of resistance and sensitization phenotypes for two small molecules. The fold change values are calculated relative to the no drug arm for targeting sgRNAs paired with the 6T and HPRT intron controls. Genes of interest are colored and labeled. (f) Buffering interactions in Meljuso cells for combinations of multidomain apoptotic genes with BH3-only sensitizer genes in different growth conditions. Data from the three small molecules were combined for the final column. Heat map scale is the same as in panel c. (g) Buffering interactions in Meljuso cells for combinations of pro-apoptotic genes and caspase genes in standard growth conditions and the combined data from the three small molecules. Heat map scale is the same as in panel c.
Applicants next analyzed Meljuso cells screened with inhibitors, first examining single gene effects.
To examine combinatorial phenotypes, Applicants combined data across the three BCL2L1 inhibitors, to minimize effects due to molecule-specific mechanism of action.
Infections were conducted as described above for the SynLet library. […] All small molecules were screened at 250 nM with an on/off dosing schedule, in which cells were treated with small-molecule for 4 days and then grown in standard growth conditions for 3 days, and then this cycle was repeated for an additional week. All arms were collected at 21 days post-infection. For Meljuso cells, all three replicates were prepared and sequenced separately.

[2] = test system: THP-1 (AML MLL-AF9) cells; experiment: BRD4 inhibitor dose response +/- WDR77 KO
Description: JQ1 dose response+/−WDR77 KO. Octuplicate wells. Repeated with two sgRNAs.
The experiments were performed in octuplicate wells and repeated with two sgRNAs. FIGS. 35 and 36 show AZD5153 dose response curves in THP-1 and MV4-11 cells that are +/−WDR77 knock-out.

[3] = test system: MV4-11 (AML MLL-AF4) cells; experiment: BRD4 inhibitor dose response +/- WDR77 KO; type: cell-based
Text: FIG. 36—illustrates that WDR77 KO sensitizes MV4-11 (AML MLL-AF4) cells to AZD5153 treatment.

Question: For `Nc1nc2nc[nH]c2c(=S)[nH]1` [6-thioguanine], which “effect of knockout of NUDTS on response to the drug” value (293T cells) is on record?
Answer: Its value is “resistance”.

Question: Which “synergy of small molecule with sgRNAs targeting MCL1 (cell viability)” value [1] does the source give for `CC1(C)CCC(c2ccc(Cl)cc2)=C(CN2CCN(c3ccc(C(=O)NS(=O)(=O)c4ccc(N[C@H](CCN5CCOCC5)CSc5ccccc5)c(S(=O)(=O)C(F)(F)F)c4)cc3)CC2)C1` [navitoclax] here?
Answer: Its value is “strongly synergized”.

Question: And the “effect of knockout of BAX and PMAIP1 (Noxa) on response to the small molecule” value (Meljuso cells)?
Answer: Its value is “resistance”.

Question: And the “effect of knockout of BCL2A1 on response to the small molecule” value (Meljuso cells)?
Answer: Its value is “sensitized”.

Question: And the “synergy with MCL1 knockout (single gene effect in screen)” value (Meljuso cells; relative to no drug arm)?
Answer: The value was “synergized”.

Question: With `Cc1c(-c2ccc(N3CCc4cccc(C(=O)Nc5nc6ccccc6s5)c4C3)nc2C(=O)O)cnn1CC12CC3CC(CC(C3)C1)C2` [A-1331852] as the compound, how does the “synergy of small molecule with sgRNAs targeting MCL1 (cell viability)” value [1] read?
Answer: The value was “strongly synergized”.

Question: What does the source list for `COc1nnc2ccc(N3CCC(c4ccc(OCCN5CCN(C)C(=O)[C@H]5C)cc4)CC3)nn12` [AZD5153]?
Answer: effect of WDR77 KO on response to treatment [2]: sensitizes; effect of WDR77 KO on response to treatment [3]: sensitizes

Question: How did the “effect of WDR77 KO on response to treatment” value [2] turn out when `Cc1sc2c(c1C)C(c1ccc(Cl)cc1)=N[C@@H](CC(=O)OC(C)(C)C)c1nnc(C)n1-2` [JQ1] was run?
Answer: Its value is “sensitizes”.

Question: Which results are given for `Cc1c(-c2c(-c3ccc(F)o3)sc3ncnc(O[C@H](Cc4ccccc4OCc4ccnn4CC(F)(F)F)C(=O)O)c23)ccc(OCCN2CCN(C)CC2)c1Cl` [S63845]?
Answer: synergy of small molecule with sgRNAs targeting BCL2L1 (cell viability) ([1]; sgRNAs targeting BCL2L1, dosed from 1 nM to 1 μM): synergized specifically; synergy with BCL2L1 knockout (single gene effect in screen) (Meljuso cells; relative to no drug arm): synergized
